Values after ≈ are worked out from the molar mass of the structure shown.
The compounds below were run on P388 (assay: Cytotoxicity against mouse P388 cells by MTT assay).
Format: functional, cell-based

| Compound | IC50 |
| --- | --- |
| CON(CCCCCCCCCCC#CCCCCc1cccnc1)[C@@H]1O[C@H](CO)[C@@H](O)[C@H](O)[C@H]1O [AMPHIMEDOSIDE A] | 11 µg/mL (≈ 21.7 µM) |
| CON(CCCCCCCCC#CCCCCc1cccnc1)[C@@H]1O[C@H](CO)[C@@H](O)[C@H](O)[C@H]1O [AMPHIMEDOSIDE B] | 11 µg/mL (≈ 23 µM) |
| CON(CCCCCCCCCCC#CCCc1cccnc1)[C@@H]1O[C@H](CO)[C@@H](O)[C@H](O)[C@H]1O [AMPHIMEDOSIDE C] | 5 µg/mL (≈ 10.4 µM) |
| CON(CC(C)CCCCCCCCCCc1cccnc1)[C@@H]1O[C@H](CO)[C@@H](O)[C@H](O)[C@H]1O (stereo not given in full) [AMPHIMEDOSIDE D] | 0.45 µg/mL (≈ 0.96 µM) |
| CON(CCCC/C=C\CCCCCCCCc1cccnc1)[C@@H]1O[C@H](CO)[C@@H](O)[C@H](O)[C@H]1O [AMPHIMEDOSIDE E] | 2.2 µg/mL (≈ 4.58 µM) |
